Experimental data as given in PMC3743763, “Conformational Changes in the Lower Palm Domain of ASIC1a Contribute to Desensitization and RFamide Modulation” (PLoS ONE, 2013).
No end group written: not given here.

Key:
wildtype ASIC1a = assay: MTSET exposure, two-electrode voltage clamp in Xenopus oocytes; type: cell-based, human
Protocol: (§1) The Stratagene QuikChange® site-directed mutagenesis kit (Cedar Creek, TX) was used to introduce point mutations into the human ASIC1a cDNA (GENBANK accession number NM_001095) within the pMT3 expression vector. Mutations were confirmed by DNA sequencing at the Plant-Microbe Genomics Facility at The Ohio State University and high quality plasmid DNA was prepared for injection using Qiagen (Valencia, CA) Midi prep kits. Female Xenopus laevis were purchased from Xenopus I (Dexter, MI) and Xenopus oocytes were isolated using standard procedures. This work was implemented in accordance with the Guide for the Care and Use of Laboratory Animals of the National Institutes of Health and approved by the Institutional Animal Care and Use Committee of The Ohio State University (protocol # 2009A0161-R1). The oocyte removal surgery was performed under tricaine methanesulfonate (MS222) anesthesia and all efforts were made to minimize suffering. Ovarian lobes were removed and digested for 1.5-2 hours at room temperature with 1.2 mg/ml collagenase in Modified Barth’s solution lacking calcium (24 mM NaHCO3, 88 mM NaCl, 15 mM HEPES, 1 mM KCl, 0.8 mM MgSO4, 125 units/liter penicillin/streptomycin) to separate individual oocytes and remove follicular membranes. Healthy stage IV and V oocytes were selected and maintained in Modified Barth’s solution containing calcium (0.4 mM CaCl2 and 0. 3 mM Ca(NO3)2). The nuclei of isolated oocytes were injected with ~5 ng of a 100 ng/µl stock of wildtype or mutant ASIC1a expression plasmids using a PV820 pneumatic picopump (World Precision Instruments, Sarasota, FL). Oocytes were incubated at 18 °C for 18-96 hours before experiments were performed.
The two-electrode voltage clamp technique was used to measure whole cell currents from Xenopus oocytes heterologously expressing ASIC1a channels as described. Electrodes were pulled using a Sutter P-97 micropipette puller (Sutter Instrument Co., Novato, CT) and filled with 3 M KCl (pipette resistance of 0.5–2 MΩ). Oocyte recordings were done in a modified RC-Z3 250 µl oocyte recording chamber (Warner Instruments, Hamden, CT). Data were acquired using an Oocyte Clamp OC-725 Amplifier (Warner Instruments, Hamden, CT) and a Powerlab 4SP digitizer with CHART5 software (ADI Instruments, Colorado Springs, CO). […]
In order to obtain the pH dependence of activation, basal pH was maintained at pH 7.4. […] Peak current amplitude was measured for each test pH and normalized to the average peak amplitude of flanking pH 5.0 currents to minimize the impact of potential tachyphylaxis. […] As before, maximal currents were measured before and after test conditioning pH to minimize the effect of possible tachyphylaxis of proton-gated current. […]

human ASIC1a L280C [1] = biological target: T1, human ASIC1a L280C (Homo sapiens, UniProt P78348, L280C); assay: MTSET modification of the cysteine mutant (residual current read-out), closed vs desensitized state; type: cell-based
T1 construct: expressed in transfected cells; host or cells: Xenopus laevis oocytes (nuclear injection of pMT3 expression plasmid)
T1 sequence (P78348 1-528 L280C): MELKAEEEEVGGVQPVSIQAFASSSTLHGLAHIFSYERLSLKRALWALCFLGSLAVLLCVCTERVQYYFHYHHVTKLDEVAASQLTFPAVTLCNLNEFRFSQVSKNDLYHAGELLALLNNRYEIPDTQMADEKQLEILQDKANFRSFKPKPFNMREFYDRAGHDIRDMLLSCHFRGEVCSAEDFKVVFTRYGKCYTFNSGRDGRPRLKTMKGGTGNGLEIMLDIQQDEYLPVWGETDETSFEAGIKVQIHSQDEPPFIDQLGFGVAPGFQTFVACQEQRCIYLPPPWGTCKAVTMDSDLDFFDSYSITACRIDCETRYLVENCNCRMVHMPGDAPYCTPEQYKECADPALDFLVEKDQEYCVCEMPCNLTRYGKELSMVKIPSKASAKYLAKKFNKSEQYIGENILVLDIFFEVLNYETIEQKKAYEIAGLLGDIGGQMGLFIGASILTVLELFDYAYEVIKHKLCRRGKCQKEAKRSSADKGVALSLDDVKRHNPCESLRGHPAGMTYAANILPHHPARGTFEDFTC
Protocol: as §1
The two-electrode voltage clamp technique was used to measure whole cell currents from Xenopus oocytes heterologously expressing ASIC1a channels as described. Electrodes were pulled using a Sutter P-97 micropipette puller (Sutter Instrument Co., Novato, CT) and filled with 3 M KCl (pipette resistance of 0.5–2 MΩ). Oocyte recordings were done in a modified RC-Z3 250 µl oocyte recording chamber (Warner Instruments, Hamden, CT). Data were acquired using an Oocyte Clamp OC-725 Amplifier (Warner Instruments, Hamden, CT) and a Powerlab 4SP digitizer with CHART5 software (ADI Instruments, Colorado Springs, CO). Except where noted, the extracellular solution contained (in mM): 116 NaCl, 2 KCl, 5 HEPES, 5 MES, 2 CaCl2, 1 MgCl2, with pH adjusted using 1N NaOH. The solution exchange rate in the recording chamber was ~1 ml/s. The holding potential was -60 mV unless otherwise noted. [2-(Trimethylammonium)ethyl] Methanethiosulfonate Bromide (MTSET) was purchased from Toronto Research Chemicals, Inc. (Ontario, Canada). FRRFamide peptide (FRRFa) and FRRF (no amide) were synthesized from EZBiolab, Inc. (Westfield, IN).
Oocytes were maintained at a basal pH of 7.4 and maximal currents were established with application of pH 5.0. Currents were allowed to decay for at least 60 s. The control residual current was determined by normalizing the current remaining at 60 s to the peak amplitude (Iresidual/Itransient). After recovery, 300 µM MTSET was applied at pH 7.4 for the indicated duration and excess MTSET was washed away with at least 10 mL of pH 7.4 solution. The pH-dependence of activation and steady-state desensitization were measured as described above. During experiments using MTSET, the effect on residual current decreased slightly over time. […]

human ASIC1a L280C [2] = biological target: T1, human ASIC1a L280C; assay: Peptide-MTSET competition (MTSET modification in presence of peptide, residual current read-out); type: cell-based; conditions: 300 µM MTSET at pH 7.4 with vehicle
Protocol: The Stratagene QuikChange® site-directed mutagenesis kit (Cedar Creek, TX) was used to introduce point mutations into the human ASIC1a cDNA (GENBANK accession number NM_001095) within the pMT3 expression vector. Mutations were confirmed by DNA sequencing at the Plant-Microbe Genomics Facility at The Ohio State University and high quality plasmid DNA was prepared for injection using Qiagen (Valencia, CA) Midi prep kits. Female Xenopus laevis were purchased from Xenopus I (Dexter, MI) and Xenopus oocytes were isolated using standard procedures. This work was implemented in accordance with the Guide for the Care and Use of Laboratory Animals of the National Institutes of Health and approved by the Institutional Animal Care and Use Committee of The Ohio State University (protocol # 2009A0161-R1). The oocyte removal surgery was performed under tricaine methanesulfonate (MS222) anesthesia and all efforts were made to minimize suffering. […]
Vehicle or 100 µM peptide was applied for 1 minute at pH 7.4. […] Before residual current was measured, oocytes were washed with at least 50 mL of pH 7.4 over 10 minutes in order to remove peptides. […]

[3] = biological target: T2, human ASIC1a L280C (human) (UniProt P78348)
T2 sequence: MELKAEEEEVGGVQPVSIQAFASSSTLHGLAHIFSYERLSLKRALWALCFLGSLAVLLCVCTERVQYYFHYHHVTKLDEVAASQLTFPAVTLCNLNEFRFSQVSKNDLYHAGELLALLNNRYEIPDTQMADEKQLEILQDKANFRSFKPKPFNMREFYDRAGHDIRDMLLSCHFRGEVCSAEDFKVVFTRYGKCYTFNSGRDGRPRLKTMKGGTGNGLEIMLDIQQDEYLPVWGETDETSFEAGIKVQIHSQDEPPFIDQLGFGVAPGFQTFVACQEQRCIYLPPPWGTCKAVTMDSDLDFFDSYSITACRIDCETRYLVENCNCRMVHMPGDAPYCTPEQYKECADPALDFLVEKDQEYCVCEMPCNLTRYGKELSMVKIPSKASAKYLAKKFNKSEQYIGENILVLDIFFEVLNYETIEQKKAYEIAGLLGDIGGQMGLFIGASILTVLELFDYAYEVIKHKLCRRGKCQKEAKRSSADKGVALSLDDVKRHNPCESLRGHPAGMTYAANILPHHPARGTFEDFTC

[4] = biological target: T3, human acid-sensing ion channel 1a (hASIC1a), wild type (human) (UniProt P78348)
T3 sequence: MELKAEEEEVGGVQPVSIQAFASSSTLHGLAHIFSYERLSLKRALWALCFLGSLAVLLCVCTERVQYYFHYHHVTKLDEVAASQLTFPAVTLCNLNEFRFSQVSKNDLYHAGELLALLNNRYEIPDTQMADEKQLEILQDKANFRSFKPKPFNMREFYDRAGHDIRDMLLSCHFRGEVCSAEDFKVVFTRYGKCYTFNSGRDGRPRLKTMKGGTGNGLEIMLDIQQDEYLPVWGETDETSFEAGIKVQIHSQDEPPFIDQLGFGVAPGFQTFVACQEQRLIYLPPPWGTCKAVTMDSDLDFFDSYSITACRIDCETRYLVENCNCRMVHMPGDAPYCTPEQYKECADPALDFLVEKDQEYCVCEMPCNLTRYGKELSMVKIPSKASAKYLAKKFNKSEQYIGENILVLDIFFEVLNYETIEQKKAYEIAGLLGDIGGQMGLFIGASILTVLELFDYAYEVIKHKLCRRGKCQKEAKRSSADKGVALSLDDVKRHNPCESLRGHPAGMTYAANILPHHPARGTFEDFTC

Molecule | % residual current after MTS (wildtype ASIC1a; 300 µM MTSET at pH 7.4, before MTS 0.16 ± 0.05%, n = 3, p = 0.3) [%] | τinact after MTS (wildtype ASIC1a; 300 µM MTSET at pH 7.4, before MTS 1.8 ± 0.2 s, n = 3, p = 0.9) [s] | steady-state desensitization, conditioning pH6.7/7.4 after MTS (wildtype ASIC1a; 300 µM MTSET, before MTS 1.8 ± 0.7%, n = 3, p = 0.2) [%] | activation pH6.5/5.0 after MTS (wildtype ASIC1a; 300 µM MTSET, before MTS 66 ± 10%, n = 3, p = 0.7) [%] | run down of MTSET effect: decrease in residual current with repeated pH 5.0 applications (human ASIC1a L280C [1]; L280C after MTSET modification, n = 8, p = 0.003 paired t-test) [%] | run down of MTSET effect: decrease in inactivation rate with repeated pH 5.0 applications (human ASIC1a L280C [1]; L280C after MTSET modification, n = 8, p = 0.01 paired t-test) [%] | run down of MTSET effect: decrease in peak amplitude with repeated pH 5.0 applications (human ASIC1a L280C [1]; L280C after MTSET modification, n = 8, p = 0.02 paired t-test) [%] | time until MTSET modification observed (increase in residual current) (human ASIC1a L280C [1]; L280C closed state, pH 6.8, 5.0 mM Ca2+ conditioning, 300 µM MTSET) [min] | MTSET modification in the desensitized state (human ASIC1a L280C [1]; L280C desensitized state, pH 6.8, nominal Ca2+-free conditioning, 300 µM MTSET up to 6 minutes) | time until MTSET modulation plateaued in presence of vehicle (human ASIC1a L280C [2]) [min] | EC50 of FRRFa modulation of the residual current of pH 5.0-evoked currents (two-electrode voltage clamp, Xenopus oocytes; responses normalised to 100 µM FRRFa) [3] [µM] | EC50 of FRRFa modulation of the residual current of pH 5.0-evoked currents (two-electrode voltage clamp, Xenopus oocytes; responses normalised to 100 µM FRRFa) [4] [µM]
C[N+](C)(C)CCSS(C)(=O)=O.[Br-] [MTSET, [2-(Trimethylammonium)ethyl] Methanethiosulfonate Bromide] | 0.31 ± 0.04 | 1.8 ± 0.2 | 1.5 ± 0.6 | 62 ± 3 | 17 ± 5 | 31 ± 9 | 5 | ≤ 2 | did not appreciably modify L280C | 5 |  | 
FRRF-NH2 [FRRFamide peptide] |  |  |  |  |  |  |  |  |  |  | 14 | 20
